Experimental findings from patent US10399940B2, “Substituted pyrrolidines and methods of use” (AbbVie S.à.r.l., priority 2016, dated 2019) are described below.

In this assay the target is T1, F508delCFTR (Homo sapiens, UniProt P13569, DEL508-508).
T1 construct: expressed in transfected cells; host or cells: CFBE41o- (human lung derived epithelial cell line), doxycycline-inducible expression
In words: Cell Surface Expression-Horse Radish Peroxidase (CSE-HRP) assay. In kind it is cell-based. The following applies: CFBE41o-F508delCFTR-HRP cells; for Maximum % activity (with co-corrector): with co-corrector (2 μM); for Maximum % activity (with co-corrector) / Maximum % activity (without co-corrector): normalized to on-plate positive control, highest concentration 20 μM. Here is the method: Cell Surface Expression-Horse Radish Peroxidase (CSE-HRP) Assay
A cellular assay for measuring the F508delCFTR cell surface expression after correction with test compounds either without or with a co-corrector (2 μM of 3-[(2R,4R)-4-({[1-(2,2-difluoro-1,3-benzodioxol-5-yl)cyclopropyl]carbonyl}amino)-7-methoxy-3,4-dihydro-2H-chromen-2-yl]benzoic acid), was developed in human lung derived epithelial cell line (CFBE41o-) (Veit G et al, (2012) Mol Biol Cell. 23(21): 4188-4202). The development was achieved by expressing the F508delCFTR mutation along with a horseradish peroxidase (HRP) in the fourth exofacial loop, and then measuring the HRP activity using luminescence readout from these cells, CFBE41o-F508delCFTR-HRP, that were incubated overnight with the test corrector compounds, either without or with the co-corrector. For this primary assay, the CFBE41o-F508delCFTR-HRP cells were plated in 384-well plates (Greiner Bio-one; Cat 781080) at 4,000 cells/well along with 0.5 μg/mL doxycycline to induce the F508delCFTR-HRP expression and further incubated at 37° C., 5% CO2 for 72 hours. The test compounds were then added either without or with a co-corrector at the required concentrations and further incubated for 18-24 hours at 33° C. The highest concentration tested was 20 μM with an 8-point concentration response curve using a 3-fold dilution in both the test compound without or with the co-corrector. Three replicate plates were run to determine one EC50. All plates contained negative controls (dimethyl sulfoxide, DMSO) and positive control (2 μM of 3-[(2R,4R)-4-({[1-(2,2-difluoro-1,3-benzodioxol-5-yl)cyclopropyl]carbonyl}amino)-7-methoxy-3,4-dihydro-2H-chromen-2-yl]benzoic acid) as well as on-plate concentration response of the positive control. Post incubation, the plates were washed 5× times with Dulbecco's phosphate buffered saline (DPBS), followed by the addition of the HRP substrate, luminol (50 μL), and measuring the HRP activity using luminescence readout on EnVision® Multilabel Plate Reader (Perkin Elmer; product number 2104-0010). The raw counts from the experiment were analyzed using Accelrys® Assay Explorer v3.3.
Z′ greater than 0.5 was used as passing quality control criteria for the plates.
The Z′ is defined as: 1−[3*SDPositive Control+3*SDNegative Control/Absolute(MeanPositive Control−MeanNegative Control)] wherein “SD” is standard deviation.
The % activity measured at each of the 8 test concentrations of the test compound added either without or with a co-corrector (2 μM of 3-[(2R,4R)-4-({[1-(2,2-difluoro-1,3-benzodioxol-5-yl)cyclopropyl]carbonyl}amino)-7-methoxy-3,4-dihydro-2H-chromen-2-yl]benzoic acid) was normalized to the on-plate positive control using the following formulae: % activity(Test compound without co-corrector)=[(test compound without co-corrector response−DMSO response)/(positive control response−DMSO response)]*100 % activity(Test compound with co-corrector)=[(test compound with co-corrector response−DMSO response)/(positive control response−DMSO response)]*100
The maximum % activity achieved for the test compound either without or with a co-corrector at any tested concentration is presented in Table 1 along with the respective EC50's calculated using the following general sigmoidal curve with variable Hill slope equation (described as Model 42 in the Accelrys® Assay Explorer v3.3 software): y=(a−d)/(1+(x/c)^b)+d
General sigmoidal curve with concentration, response, top, bottom, EC50 and Hill slope. This model describes a sigmoidal curve with an adjustable baseline, a. The equation can be used to fit curves where response is either increasing or decreasing with respect to the independent variable, “x”. • “x” is a concentration of drug under test. • “y” is the response. • “a” is the maximum response, and “d” is the minimum response • “c” is the inflection point (EC50) for the curve. That is, “y” is halfway between the lower and upper asymptotes when x=c. “b” is the slope-factor or Hill coefficient. […]

[1] abbreviates: test compound without co-corrector, 18-24 hours at 33° C., read-out: EC50 (without co-corrector).
Where [2] appears, read: with co-corrector (2 μM of 3-[(2R,4R)-4-({[1-(2,2-difluoro-1,3-benzodioxol-5-yl)cyclopropyl]carbonyl}amino)-7-methoxy-3,4-dihydro-2H-chromen-2-yl]benzoic acid), read-out: EC50 (with co-corrector).

pEC50: −log10 of the molar value. Like-named read-outs stand apart in the source and are kept apart here. Some results are limits rather than exact numbers.

T1 sequence (P13569 with tags, fused parts or gaps DEL508-508): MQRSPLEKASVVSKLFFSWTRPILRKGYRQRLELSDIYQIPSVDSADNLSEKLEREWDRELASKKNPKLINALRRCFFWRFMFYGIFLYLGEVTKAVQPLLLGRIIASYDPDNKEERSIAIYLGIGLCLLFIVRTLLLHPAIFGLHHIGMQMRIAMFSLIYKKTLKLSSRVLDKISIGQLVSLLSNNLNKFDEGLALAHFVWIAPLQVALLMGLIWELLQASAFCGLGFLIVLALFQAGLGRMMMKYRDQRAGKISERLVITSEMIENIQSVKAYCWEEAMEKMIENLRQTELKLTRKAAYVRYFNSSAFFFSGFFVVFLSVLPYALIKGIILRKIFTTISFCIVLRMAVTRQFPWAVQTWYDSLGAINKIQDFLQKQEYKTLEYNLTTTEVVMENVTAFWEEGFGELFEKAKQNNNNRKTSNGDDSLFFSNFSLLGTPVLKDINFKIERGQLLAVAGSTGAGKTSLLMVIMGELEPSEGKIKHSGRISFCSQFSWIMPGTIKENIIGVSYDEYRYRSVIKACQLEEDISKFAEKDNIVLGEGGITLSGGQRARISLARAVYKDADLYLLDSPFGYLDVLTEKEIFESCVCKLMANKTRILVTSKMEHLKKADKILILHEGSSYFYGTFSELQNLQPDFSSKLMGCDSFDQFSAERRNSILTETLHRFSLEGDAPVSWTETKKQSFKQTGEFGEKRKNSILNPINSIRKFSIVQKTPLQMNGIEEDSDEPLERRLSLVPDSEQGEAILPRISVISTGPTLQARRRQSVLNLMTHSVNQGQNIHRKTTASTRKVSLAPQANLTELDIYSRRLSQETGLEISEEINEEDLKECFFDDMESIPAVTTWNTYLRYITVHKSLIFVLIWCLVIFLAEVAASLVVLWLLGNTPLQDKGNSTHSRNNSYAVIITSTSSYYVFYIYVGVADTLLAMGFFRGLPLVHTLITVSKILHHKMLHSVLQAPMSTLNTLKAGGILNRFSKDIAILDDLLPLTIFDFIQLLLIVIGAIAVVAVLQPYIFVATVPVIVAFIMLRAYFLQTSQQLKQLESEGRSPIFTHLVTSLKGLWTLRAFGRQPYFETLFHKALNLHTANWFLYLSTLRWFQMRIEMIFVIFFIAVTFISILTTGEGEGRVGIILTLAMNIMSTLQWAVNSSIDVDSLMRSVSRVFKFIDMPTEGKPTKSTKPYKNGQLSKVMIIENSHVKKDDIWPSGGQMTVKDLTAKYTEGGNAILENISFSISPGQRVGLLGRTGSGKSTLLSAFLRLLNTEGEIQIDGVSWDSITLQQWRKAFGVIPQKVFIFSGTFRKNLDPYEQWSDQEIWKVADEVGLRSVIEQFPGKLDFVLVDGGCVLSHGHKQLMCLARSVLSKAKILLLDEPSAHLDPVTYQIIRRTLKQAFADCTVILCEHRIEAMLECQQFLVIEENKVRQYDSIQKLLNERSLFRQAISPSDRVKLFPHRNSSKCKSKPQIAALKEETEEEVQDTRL

Turning to `COc1ccc(C(F)(F)F)cc1CO[C@@H]1[C@@H](C(C)(C)C)[C@H](C(=O)O)N(C(=O)C2CCCCC2)[C@@H]1c1ccccc1` [Example 18, (2R,3S,4R,5R)-3-tert-butyl-1-(cyclohexanecarbonyl)-4-{[2-methoxy-5-(trifluoromethyl)phenyl]methoxy}-5-phenylpyrrolidine-2-carboxylic acid], the “Maximum % activity (with co-corrector)” value was “++ (≥150 and <350)”; the “Maximum % activity (without co-corrector)” value is given as “+ (<100)”. For the same compound, the pEC50 under setting [1] is less than 5.00. Further, the pEC50 under setting [2] is 5.00 to 6.00.

In the case of `COc1ccc(C(F)(F)F)cc1CO[C@H]1[C@H](C(C)(C)C)[C@@H](C(=O)O)N(C(=O)C2CCCCC2)[C@H]1c1ccccc1` [Example 19, (2S,3R,4S,5S)-3-tert-butyl-1-(cyclohexanecarbonyl)-4-{[2-methoxy-5-(trifluoromethyl)phenyl]methoxy}-5-phenylpyrrolidine-2-carboxylic acid], the “Maximum % activity (with co-corrector)” value is “+++ (≥350)” and the “Maximum % activity (without co-corrector)” value is “+++ (≥200)”. Further, the pEC50 under setting [1] was greater than 6.00. The pEC50 under setting [2] was greater than 6.00.

With `COCCS(=O)(=O)NC(=O)[C@@H]1[C@@H](C(C)(C)C)[C@H](OCc2cc(C(F)(F)F)ccc2OC)[C@H](c2ccccc2)N1C(=O)C1CCCCC1` [Example 21, (2S,3R,4S,5S)-3-tert-butyl-1-(cyclohexanecarbonyl)-N-(2-methoxyethanesulfonyl)-4-{[2-methoxy-5-(trifluoromethyl)phenyl]methoxy}-5-phenylpyrrolidine-2-carboxamide], the “Maximum % activity (with co-corrector)” value is “++ (≥150 and <350)”; the “Maximum % activity (without co-corrector)” value is “+ (<100)”. Besides, the pEC50 under setting [1] was less than 5.00. Besides, under setting [2], the pEC50 is 5.00 to 6.00.

On to `COc1ccc(C(F)(F)F)cc1CO[C@H]1[C@H](C(C)(C)C)[C@@H](C(=O)NS(=O)(=O)C2(C)CC2)N(C(=O)C2CCCCC2)[C@H]1c1ccccc1` [Example 22, (2S,3R,4S,5S)-3-tert-butyl-1-(cyclohexanecarbonyl)-4-{[2-methoxy-5-(trifluoromethyl)phenyl]methoxy}-N-(1-methylcyclopropane-1-sulfonyl)-5-phenylpyrrolidine-2-carboxamide], for which the “Maximum % activity (with co-corrector)” value is “+ (<150)” and the “Maximum % activity (without co-corrector)” value is given as “+ (<100)”. Besides, under setting [1], the pEC50 is less than 5.00. Also, the pEC50 under setting [2] is less than 5.00.

`COc1ccc(C(F)(F)F)cc1CO[C@H]1[C@H](C(C)(C)C)[C@@H](C(=O)NS(=O)(=O)C2CC2)N(C(=O)C2CCCCC2)[C@H]1c1ccccc1` [Example 23, (2S,3R,4S,5S)-3-tert-butyl-1-(cyclohexanecarbonyl)-N-(cyclopropanesulfonyl)-4-{[2-methoxy-5-(trifluoromethyl)phenyl]methoxy}-5-phenylpyrrolidine-2-carboxamide]: the “Maximum % activity (with co-corrector)” value is “++ (≥150 and <350)”; the “Maximum % activity (without co-corrector)” value is recorded as “+ (<100)”. Moreover, the pEC50 under setting [1] is less than 5.00. For the same compound, the pEC50 under setting [2] is 5.00 to 6.00.

On to `CCS(=O)(=O)NC(=O)[C@@H]1[C@@H](C(C)(C)C)[C@H](OCc2cc(C(F)(F)F)ccc2OC)[C@H](c2ccccc2)N1C(=O)C1CCCCC1` [Example 24, (2S,3R,4S,5S)-3-tert-butyl-1-(cyclohexanecarbonyl)-N-(ethanesulfonyl)-4-{[2-methoxy-5-(trifluoromethyl)phenyl]methoxy}-5-phenylpyrrolidine-2-carboxamide], for which the “Maximum % activity (with co-corrector)” value was “++ (≥150 and <350)”; the “Maximum % activity (without co-corrector)” value was “+ (<100)”. The pEC50 under setting [1] is less than 5.00. Also, the pEC50 under setting [2] is 5.00 to 6.00.

Turning to `COc1ccc(C(F)(F)F)cc1CO[C@H]1[C@H](C(C)(C)C)[C@@H](C(=O)NS(=O)(=O)N(C)C)N(C(=O)C2CCCCC2)[C@H]1c1ccccc1` [Example 25, (2S,3R,4S,5S)-3-tert-butyl-1-(cyclohexanecarbonyl)-N-(dimethylsulfamoyl)-4-{[2-methoxy-5-(trifluoromethyl)phenyl]methoxy}-5-phenylpyrrolidine-2-carboxamide], the “Maximum % activity (with co-corrector)” value was “++ (≥150 and <350)”; the “Maximum % activity (without co-corrector)” value is “+ (<100)”. In addition, the pEC50 under setting [1] is less than 5.00. Under setting [2], the pEC50 was 5.00 to 6.00.

Regarding `COc1ccc(C(F)(F)F)cc1CO[C@H]1[C@H](C(C)(C)C)[C@@H](C(=O)NS(C)(=O)=O)N(C(=O)C2CCCCC2)[C@H]1c1ccccc1` [Example 26, (2S,3R,4S,5S)-3-tert-butyl-1-(cyclohexanecarbonyl)-N-(methanesulfonyl)-4-{[2-methoxy-5-(trifluoromethyl)phenyl]methoxy}-5-phenylpyrrolidine-2-carboxamide], the “Maximum % activity (with co-corrector)” value was “++ (≥150 and <350)”; the “Maximum % activity (without co-corrector)” value was “+ (<100)”. Further, the pEC50 under setting [1] is 5.00 to 6.00. Besides, under setting [2], the pEC50 was 5.00 to 6.00.

For the compound `COc1ccc(C(F)(F)F)cc1CO[C@@H]1[C@@H](C(C)(C)C)[C@H](C(=O)O)N(C(=O)[C@H]2CCC[C@H](OC)C2)[C@@H]1c1ccccc1` [Example 27, (2R,3S,4R,5R)-3-tert-butyl-1-[(1S,3S)-3-methoxycyclohexane-1-carbonyl]-4-{[2-methoxy-5-(trifluoromethyl)phenyl]methoxy}-5-phenylpyrrolidine-2-carboxylic acid], the “Maximum % activity (with co-corrector)” value was “+++ (≥350)”; the “Maximum % activity (without co-corrector)” value was “++ (≥100 and <200)”. Moreover, the pEC50 under setting [1] was 5.00 to 6.00. Further, under setting [2], the pEC50 is greater than 6.00.

In the case of `CO[C@H]1CCC[C@H](C(=O)N2[C@H](c3ccccc3)[C@H](Oc3cc(C(F)(F)F)cc(C)n3)[C@@H](C(C)(C)C)[C@@H]2C(=O)O)C1` [Example 28, (2R,3S,4R,5R)-3-tert-butyl-1-[(1S,3S)-3-methoxycyclohexane-1-carbonyl]-4-{[6-methyl-4-(trifluoromethyl)pyridin-2-yl]oxy}-5-phenylpyrrolidine-2-carboxylic acid], the “Maximum % activity (with co-corrector)” value was “+++ (≥350)”; the “Maximum % activity (without co-corrector)” value was “++ (≥100 and <200)”. For the same compound, under setting [1], the pEC50 was 5.00 to 6.00. Also, the pEC50 under setting [2] is 5.00 to 6.00.

As for `COc1ccc(C(F)(F)F)cc1CO[C@H]1[C@H](C(C)(C)C)[C@@H](C(=O)O)N(C(=O)[C@H]2CCC[C@H](OC)C2)[C@H]1c1ccccc1` [Example 30, (2S,3R,4S,5S)-3-tert-butyl-1-[(1S,3S)-3-methoxycyclohexane-1-carbonyl]-4-{[2-methoxy-5-(trifluoromethyl)phenyl]methoxy}-5-phenylpyrrolidine-2-carboxylic acid], the “Maximum % activity (with co-corrector)” value is recorded as “+++ (≥350)”; the “Maximum % activity (without co-corrector)” value was “++ (≥100 and <200)”. Also, the pEC50 under setting [1] is 5.00 to 6.00. In addition, the pEC50 under setting [2] is greater than 6.00.
